Data taken from ChEMBL document CHEMBL1137784, “L337H mutant of rat neuronal nitric oxide synthase resembles human neuronal nitric oxide synthase toward inhibitors” (J Med Chem, 2009).

Experiments:
Nitric oxide synthase 1 [1] = target: Nitric oxide synthase 1 (Rattus norvegicus, UniProt P29476); experiment: Inhibition of wild type rat nNOS by hemoglobin capture assay
Nitric oxide synthase 1 [2] = target: T1, Nitric oxide synthase 1 (Homo sapiens, UniProt P29475); experiment: Inhibition of human nNOS by hemoglobin capture assay
T1 sequence (P29475 whole entry): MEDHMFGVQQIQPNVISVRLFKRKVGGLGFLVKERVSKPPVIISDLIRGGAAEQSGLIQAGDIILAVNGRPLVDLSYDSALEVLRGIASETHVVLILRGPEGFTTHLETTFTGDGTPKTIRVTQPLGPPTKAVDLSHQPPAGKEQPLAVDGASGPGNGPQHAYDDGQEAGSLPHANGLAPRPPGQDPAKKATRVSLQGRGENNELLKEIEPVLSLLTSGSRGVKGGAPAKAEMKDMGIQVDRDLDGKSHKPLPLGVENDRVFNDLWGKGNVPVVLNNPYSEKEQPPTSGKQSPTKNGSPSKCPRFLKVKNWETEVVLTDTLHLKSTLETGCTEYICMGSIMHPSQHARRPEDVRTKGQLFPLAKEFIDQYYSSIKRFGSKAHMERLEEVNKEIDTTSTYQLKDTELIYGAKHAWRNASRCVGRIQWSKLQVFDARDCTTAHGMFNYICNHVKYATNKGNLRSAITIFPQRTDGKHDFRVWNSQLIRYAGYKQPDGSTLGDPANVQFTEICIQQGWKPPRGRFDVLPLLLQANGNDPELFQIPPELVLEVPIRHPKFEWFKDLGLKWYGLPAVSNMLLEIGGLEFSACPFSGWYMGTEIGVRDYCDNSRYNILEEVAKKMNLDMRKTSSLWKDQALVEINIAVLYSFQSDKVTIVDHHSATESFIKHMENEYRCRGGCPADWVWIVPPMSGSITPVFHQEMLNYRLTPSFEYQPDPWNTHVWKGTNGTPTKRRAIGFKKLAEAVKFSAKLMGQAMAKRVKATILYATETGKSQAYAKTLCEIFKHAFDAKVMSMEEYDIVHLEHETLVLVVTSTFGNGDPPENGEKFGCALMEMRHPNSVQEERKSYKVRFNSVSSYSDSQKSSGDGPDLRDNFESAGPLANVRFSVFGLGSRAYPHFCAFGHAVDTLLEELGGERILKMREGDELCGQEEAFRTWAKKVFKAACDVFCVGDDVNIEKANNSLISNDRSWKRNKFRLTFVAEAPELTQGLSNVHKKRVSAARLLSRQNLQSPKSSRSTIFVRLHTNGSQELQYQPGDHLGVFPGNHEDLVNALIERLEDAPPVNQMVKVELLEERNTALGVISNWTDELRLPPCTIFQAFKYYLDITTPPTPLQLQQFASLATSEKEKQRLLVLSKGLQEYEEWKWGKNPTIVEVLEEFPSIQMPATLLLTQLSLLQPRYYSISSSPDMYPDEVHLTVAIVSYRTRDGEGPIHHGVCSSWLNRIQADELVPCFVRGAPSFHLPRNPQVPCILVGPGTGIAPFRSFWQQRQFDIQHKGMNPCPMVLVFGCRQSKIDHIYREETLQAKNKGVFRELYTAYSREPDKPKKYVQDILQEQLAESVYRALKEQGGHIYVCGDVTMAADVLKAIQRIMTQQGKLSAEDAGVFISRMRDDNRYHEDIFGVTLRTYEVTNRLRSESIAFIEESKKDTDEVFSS

Nitric oxide synthase 1 [3] = target: Nitric oxide synthase 1 (Rattus norvegicus, UniProt P29476, L337H)
Chain of Nitric oxide synthase 1 (Rattus norvegicus, UniProt P29476, L337H) (P29476 whole entry L337H): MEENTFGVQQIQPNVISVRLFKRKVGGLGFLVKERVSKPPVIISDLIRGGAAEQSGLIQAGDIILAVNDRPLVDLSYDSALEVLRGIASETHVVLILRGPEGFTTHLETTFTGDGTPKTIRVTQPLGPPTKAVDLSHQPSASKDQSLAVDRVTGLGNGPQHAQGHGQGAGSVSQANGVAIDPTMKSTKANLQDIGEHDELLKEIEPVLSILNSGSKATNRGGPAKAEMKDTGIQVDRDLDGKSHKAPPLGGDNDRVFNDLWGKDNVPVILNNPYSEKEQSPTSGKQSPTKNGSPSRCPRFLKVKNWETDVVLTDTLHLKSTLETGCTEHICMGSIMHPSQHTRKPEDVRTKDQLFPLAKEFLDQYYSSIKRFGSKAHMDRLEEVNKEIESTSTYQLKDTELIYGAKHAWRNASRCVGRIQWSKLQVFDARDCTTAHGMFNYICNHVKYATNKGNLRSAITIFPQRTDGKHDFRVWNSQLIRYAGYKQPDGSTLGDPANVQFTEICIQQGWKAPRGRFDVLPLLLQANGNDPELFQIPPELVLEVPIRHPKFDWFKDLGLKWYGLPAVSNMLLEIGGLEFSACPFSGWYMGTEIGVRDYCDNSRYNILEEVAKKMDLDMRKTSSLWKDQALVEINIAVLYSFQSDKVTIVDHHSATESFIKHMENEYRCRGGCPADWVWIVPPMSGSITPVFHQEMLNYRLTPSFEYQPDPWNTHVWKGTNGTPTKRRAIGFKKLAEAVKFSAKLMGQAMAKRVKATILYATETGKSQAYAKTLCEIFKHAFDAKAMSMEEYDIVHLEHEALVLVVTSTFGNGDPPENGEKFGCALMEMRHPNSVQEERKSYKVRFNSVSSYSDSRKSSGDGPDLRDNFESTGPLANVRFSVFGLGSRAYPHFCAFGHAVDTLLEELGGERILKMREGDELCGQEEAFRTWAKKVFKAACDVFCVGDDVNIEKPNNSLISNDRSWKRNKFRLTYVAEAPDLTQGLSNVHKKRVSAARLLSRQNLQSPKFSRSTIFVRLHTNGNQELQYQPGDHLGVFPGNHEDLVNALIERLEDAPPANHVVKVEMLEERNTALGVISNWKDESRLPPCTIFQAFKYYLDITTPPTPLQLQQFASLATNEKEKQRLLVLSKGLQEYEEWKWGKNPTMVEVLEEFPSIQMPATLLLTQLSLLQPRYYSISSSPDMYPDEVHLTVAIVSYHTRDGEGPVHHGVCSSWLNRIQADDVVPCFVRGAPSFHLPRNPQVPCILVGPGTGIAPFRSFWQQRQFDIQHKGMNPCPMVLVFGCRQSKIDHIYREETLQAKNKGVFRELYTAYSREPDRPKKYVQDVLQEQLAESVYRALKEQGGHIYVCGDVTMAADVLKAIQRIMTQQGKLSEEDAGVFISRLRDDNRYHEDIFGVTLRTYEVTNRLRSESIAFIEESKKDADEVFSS

[4] = Selectivity ratio of IC50 for wild type rat nNOS to IC50 for human nNOS by hemoglobin capture assay
Rattus norvegicus = species: Rattus norvegicus; experiment: Selectivity ratio of IC50 for wild type rat nNOS to IC50 for rat nNOS L337H mutant by hemoglobin capture assay
Nitric oxide synthase 1 [5] = target: T1, Nitric oxide synthase 1; experiment: Inhibition of human nNOS by radioactivity assay

Chain of Nitric oxide synthase 1 (Rattus norvegicus, UniProt P29476) (P29476 whole entry): as the sequence (P29476 whole entry L337H) above, with H337L counted along it

IC50 (Nitric oxide synthase 1 [1]) [µM] | IC50 (Nitric oxide synthase 1 [2]) [µM] | IC50 (Nitric oxide synthase 1 [3]) [µM] | Ratio IC50 [4] | Ratio IC50 (Rattus norvegicus) | IC50 (Nitric oxide synthase 1 [5]) [µM] | SMILES
0.1 | 0.1 | 0.1 | 1 | 1.1 | – | Cc1cc(C)nc(N)c1
– | 0.6 | – | – | – | 0.7 | Cc1cc(N)nc(CC2CNCC2OCCNCCc2cccc(F)c2)c1 (racemic)
1.3 | 4 | 3.4 | 3.1 | 2.7 | – | Cc1cc(N)nc(CC2CNCC2NCCN)c1 (racemic)
0.7 | 3 | 4 | 4.3 | 5.7 | – | Cc1cc(N)nc(CC2CNCC2NC(=O)CNCCc2cccc(F)c2)c1 (racemic)
1.1 | 4.2 | 5 | 3.8 | 4.6 | – | Cc1cc(N)nc(CC2CNCC2NCCNCCc2ccc(Cl)cc2)c1 (racemic)

SMILES | IC50 (Nitric oxide synthase 1 [1]) [µM] | IC50 (Nitric oxide synthase 1 [2]) [µM] | IC50 (Nitric oxide synthase 1 [3]) [µM] | Ratio IC50 [4] | Ratio IC50 (Rattus norvegicus) | IC50 (Nitric oxide synthase 1 [5]) [µM]
NCCNC1CNCC1Cc1cccc(N)n1 (racemic) | – | 15.3 | – | – | – | –
Cc1cc(N)nc(CC2CNCC2NCCOCCc2cccc(F)c2)c1 (racemic) | 2.9 | 6.6 | 5.5 | 2.4 | 1.9 | –
